Results from patent publication US10011607B2, “Ethynyl derivatives” (Hoffmann-La Roche Inc., priority 2015, dated 2018).

Biological target: human mGlu4 receptor (Homo sapiens (Human), UniProt Q14833)
Assay: Ca2+ mobilization in vitro assay on recombinant human mGlu4 expressed in HEK293 cells (PAM)
Assay type: cell-based
Conditions: for Emax: HEK293, maximal response in % of maximal stimulatory effect of saturating L-AP4, read-out: Eff. (%); for EC50: HEK293 cells, human mGlu4, in presence of EC20 of L-AP4, read-out: EC50 (nM) mGlu4PAM
Method in brief: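 HEK293 cells stably expressing human mGlu4 at low level, Fluo-4AM loaded; compound (11 half-log dilutions) pre-incubated 10–30 min at 37 °C, then L-AP4 added at EC20 (determined daily). Peak fluorescence minus basal, normalized to saturating L-AP4; EC50, Hill slope and % Emax from four-parameter fit.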

Sequence of human mGlu4 receptor (Q14833 33-912): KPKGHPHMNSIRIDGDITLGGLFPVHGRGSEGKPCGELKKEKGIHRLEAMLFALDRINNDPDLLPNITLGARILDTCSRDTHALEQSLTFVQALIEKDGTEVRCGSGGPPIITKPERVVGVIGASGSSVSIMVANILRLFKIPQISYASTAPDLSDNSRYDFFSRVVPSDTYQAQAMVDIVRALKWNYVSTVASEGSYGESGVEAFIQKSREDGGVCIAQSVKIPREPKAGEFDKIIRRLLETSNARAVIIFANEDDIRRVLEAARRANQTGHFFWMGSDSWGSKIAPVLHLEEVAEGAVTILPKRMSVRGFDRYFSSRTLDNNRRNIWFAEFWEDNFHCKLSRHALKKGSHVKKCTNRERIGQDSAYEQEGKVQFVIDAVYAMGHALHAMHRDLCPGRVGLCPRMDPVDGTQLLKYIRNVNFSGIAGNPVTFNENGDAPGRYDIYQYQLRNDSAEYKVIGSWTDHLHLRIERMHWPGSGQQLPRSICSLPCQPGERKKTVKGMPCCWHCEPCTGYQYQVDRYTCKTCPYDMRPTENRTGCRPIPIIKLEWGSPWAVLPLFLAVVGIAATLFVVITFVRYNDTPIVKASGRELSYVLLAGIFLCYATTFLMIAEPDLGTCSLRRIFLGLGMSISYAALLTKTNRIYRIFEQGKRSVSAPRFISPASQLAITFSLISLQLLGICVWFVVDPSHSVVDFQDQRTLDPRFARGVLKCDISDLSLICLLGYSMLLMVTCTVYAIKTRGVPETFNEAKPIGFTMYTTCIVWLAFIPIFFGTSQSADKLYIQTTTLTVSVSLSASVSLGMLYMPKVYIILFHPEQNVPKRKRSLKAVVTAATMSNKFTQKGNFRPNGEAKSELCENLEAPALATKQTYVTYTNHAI

SMILES	Emax [%]	EC50 [nM]
Cn1ncc(N2CCN3C(=O)N(c4c(F)cc(C#Cc5ccccc5)cc4F)C(=O)CC3(C)C2=O)cc1=O (racemic) [Example 51, (9aRS)-7-[2,6-difluoro-4-(2-phenylethynyl)phenyl]-9a-methyl-2-(1-methyl-6-oxo-pyridazin-4-yl)-4,9-dihydro-3H-pyrazino[1,2-c]pyrimidine-1,6,8-trione]	120	191
Cn1cc(N2CCN3C(=O)N(c4c(F)cc(C#Cc5ccccc5)cc4Cl)C(=O)C[C@@]3(C)C2=O)cn1 [Example 78, (9aS)-7-[2-chloro-6-fluoro-4-(2-phenylethynyl)phenyl]-9a-methyl-2-(1-methylpyrazol-4-yl)-4,9-dihydro-3H-pyrazino[1,2-c]pyrimidine-1,6,8-trione]	117	75
C[C@@]12CC(=O)N(c3c(F)cc(C#Cc4ccccc4F)cc3F)C(=O)N1CCN(c1cccnc1)C2=O [Example 109, (9aS)-7-[2,6-difluoro-4-[2-(2-fluorophenyl)ethynyl]phenyl]-9a-methyl-2-(3-pyridyl)-4,9-dihydro-3H-pyrazino[1,2-c]pyrimidine-1,6,8-trione]	85	56
Cc1ccccc1CN1CCN2C(=O)N(c3c(F)cc(C#Cc4ccccc4)cc3F)C(=O)CC2(C)C1=O (racemic) [Example 85, (9aRS)-7-[2,6-difluoro-4-(2-phenylethynyl)phenyl]-9a-methyl-2-(o-tolylmethyl)-4,9-dihydro-3H-pyrazino[1,2-c]pyrimidine-1,6,8-trione]	83	205
C[C@@]12CC(=O)N(c3c(F)cc(C#Cc4ccccc4)cc3F)C(=O)N1CCN(Cc1ccccc1F)C2=O [Example 89, (9aS)-7-[2,6-difluoro-4-(2-phenylethynyl)phenyl]-2-[(2-fluorophenyl)methyl]-9a-methyl-4,9-dihydro-3H-pyrazino[1,2-c]pyrimidine-1,6,8-trione]	98	149
C[C@@]12CC(=O)N(c3c(F)cc(C#Cc4ccccc4)cc3F)C(=O)N1CCN(c1ccnnc1)C2=O [Example 50, (9aS)-7-[2,6-difluoro-4-(2-phenylethynyl)phenyl]-9a-methyl-2-pyridazin-4-yl-4,9-dihydro-3H-pyrazino[1,2-c]pyrimidine-1,6,8-trione]	133	74
Cn1nc(N2CCN3C(=O)N(c4c(F)cc(C#Cc5ccccc5)cc4F)C(=O)C[C@@]3(C)C2=O)ccc1=O [Example 49, (9aS)-7-[2,6-difluoro-4-(2-phenylethynyl)phenyl]-9a-methyl-2-(1-methyl-6-oxo-pyridazin-3-yl)-4,9-dihydro-3H-pyrazino[1,2-c]pyrimidine-1,6,8-trione]	109	197
C[C@@]12CC(=O)N(c3c(F)cc(C#Cc4ccccc4)cc3F)C(=O)N1CCN(c1cn[nH]c1)C2=O [Example 71, (9aS)-7-[2,6-difluoro-4-(2-phenylethynyl)phenyl]-9a-methyl-2-(1H-pyrazol-4-yl)-4,9-dihydro-3H-pyrazino[1,2-c]pyrimidine-1,6,8-trione]	182	101
Cn1cc(CCN2CCN3C(=O)N(c4c(F)cc(C#Cc5ccccc5)cc4F)C(=O)C[C@@]3(C)C2=O)cn1 [Example 101, (9aS)-7-[2,6-difluoro-4-(2-phenylethynyl)phenyl]-9a-methyl-2-[2-(1-methylpyrazol-4-yl)ethyl]-4,9-dihydro-3H-pyrazino[1,2-c]pyrimidine-1,6,8-trione]	129	125
CC(C)n1cc(N2CCN3C(=O)N(c4c(F)cc(C#Cc5ccccc5)cc4F)C(=O)C[C@@]3(C)C2=O)cn1 [Example 70, (9aS)-7-[2,6-difluoro-4-(2-phenylethynyl)phenyl]-2-(1-isopropylpyrazol-4-yl)-9a-methyl-4,9-dihydro-3H-pyrazino[1,2-c]pyrimidine-1,6,8-trione]	150	139
C[C@@]12CC(=O)N(c3c(F)cc(C#Cc4ccccc4)cc3F)C(=O)N1CCN(c1cnccn1)C2=O [Example 33, (9aS)-7-[2,6-difluoro-4-(2-phenylethynyl)phenyl]-9a-methyl-2-pyrazin-2-yl-4,9-dihydro-3H-pyrazino[1,2-c]pyrimidine-1,6,8-trione]	107	46
Cn1cc(N2CCN3C(=O)N(c4c(F)cc(C#Cc5ccccc5)cc4Cl)C(=O)CC3(C)C2=O)cn1 (racemic) [Example 77, (9aRS)-7-[2-chloro-6-fluoro-4-(2-phenylethynyl)phenyl]-9a-methyl-2-(1-methylpyrazol-4-yl)-4,9-dihydro-3H-pyrazino[1,2-c]pyrimidine-1,6,8-trione]	111	104
Cc1cnc(N2CCN3C(=O)N(c4c(F)cc(C#Cc5ccccc5)cc4F)C(=O)CC3(C)C2=O)s1 (racemic) [Example 53, (9aRS)-7-[2,6-difluoro-4-(2-phenylethynyl)phenyl]-9a-methyl-2-(5-methylthiazol-2-yl)-4,9-dihydro-3H-pyrazino[1,2-c]pyrimidine-1,6,8-trione]	100	88
Cn1cnc(N2CCN3C(=O)N(c4c(F)cc(C#Cc5ccccc5)cc4F)C(=O)CC3(C)C2=O)c1 (racemic) [Example 58, (9aRS)-7-[2,6-difluoro-4-(2-phenylethynyl)phenyl]-9a-methyl-2-(1-methylimidazol-4-yl)-4,9-dihydro-3H-pyrazino[1,2-c]pyrimidine-1,6,8-trione]	91	214
C[C@@]12CC(=O)N(c3c(F)cc(C#Cc4ccccc4)cc3F)C(=O)N1CCN(c1cnc(OC3CC3)nc1)C2=O [Example 43, (9aS)-2-[2-(cyclopropoxy)pyrimidin-5-yl]-7-[2,6-difluoro-4-(2-phenylethynyl)phenyl]-9a-methyl-4,9-dihydro-3H-pyrazino[1,2-c]pyrimidine-1,6,8-trione]	153	171
CC12CC(=O)N(c3ccc(C#Cc4ccccc4)cc3F)C(=O)N1CCN(c1cccnc1)C2=O (racemic) [Example 108, (9aRS)-7-[2-fluoro-4-(2-phenylethynyl)phenyl]-9a-methyl-2-(3-pyridyl)-4,9-dihydro-3H-pyrazino[1,2-c]pyrimidine-1,6,8-trione]	103	267
Cn1nccc1N1CCN2C(=O)N(c3c(F)cc(C#Cc4ccccc4)cc3F)C(=O)CC2(C)C1=O (racemic) [Example 64, (9aRS)-7-[2,6-difluoro-4-(2-phenylethynyl)phenyl]-9a-methyl-2-(2-methylpyrazol-3-yl)-4,9-dihydro-3H-pyrazino[1,2-c]pyrimidine-1,6,8-trione]	155	125
CC12CC(=O)N(c3c(F)cc(C#Cc4ccccc4)cc3F)C(=O)N1CCN(c1ccnc(Cl)c1)C2=O (racemic) [Example 18, (9aRS)-2-(2-chloro-4-pyridyl)-7-[2,6-difluoro-4-(2-phenylethynyl)phenyl]-9a-methyl-4,9-dihydro-3H-pyrazino[1,2-c]pyrimidine-1,6,8-trione]	131	114
Cc1ccc(CN2CCN3C(=O)N(c4c(F)cc(C#Cc5ccccc5)cc4F)C(=O)CC3(C)C2=O)cc1 (racemic) [Example 84, (9aRS)-7-[2,6-difluoro-4-(2-phenylethynyl)phenyl]-9a-methyl-2-(p-tolylmethyl)-4,9-dihydro-3H-pyrazino[1,2-c]pyrimidine-1,6,8-trione]	87	117
C[C@@]12CC(=O)N(c3c(F)cc(C#Cc4ccccc4)cc3F)C(=O)N1CCN(c1cccnc1)C2=O [Example 7, (9aS)-7-[2,6-difluoro-4-(2-phenylethynyl)phenyl]-9a-methyl-2-(3-pyridyl)-4,9-dihydro-3H-pyrazino[1,2-c]pyrimidine-1,6,8-trione]	126	73
Cc1cncnc1N1CCN2C(=O)N(c3c(F)cc(C#Cc4ccccc4)cc3F)C(=O)C[C@@]2(C)C1=O [Example 36, (9aS)-7-[2,6-difluoro-4-(2-phenylethynyl)phenyl]-9a-methyl-2-(5-methylpyrimidin-4-yl)-4,9-dihydro-3H-pyrazino[1,2-c]pyrimidine-1,6,8-trione]	132	86
Cc1nccc(N2CCN3C(=O)N(c4c(F)cc(C#Cc5ccccc5)cc4F)C(=O)CC3(C)C2=O)n1 (racemic) [Example 30, (9aRS)-7-[2,6-difluoro-4-(2-phenylethynyl)phenyl]-9a-methyl-2-(2-methylpyrimidin-4-yl)-4,9-dihydro-3H-pyrazino[1,2-c]pyrimidine-1,6,8-trione]	101	113
CC(C)Oc1ncc(N2CCN3C(=O)N(c4c(F)cc(C#Cc5ccccc5)cc4F)C(=O)C[C@@]3(C)C2=O)cn1 [Example 40, (9aS)-7-[2,6-difluoro-4-(2-phenylethynyl)phenyl]-2-(2-isopropoxypyrimidin-5-yl)-9a-methyl-4,9-dihydro-3H-pyrazino[1,2-c]pyrimidine-1,6,8-trione]	103	113
COc1ncc(N2CCN3C(=O)N(c4c(F)cc(C#Cc5ccccc5)cc4F)C(=O)C[C@@]3(C)C2=O)cn1 [Example 37, (9aS)-7-[2,6-difluoro-4-(2-phenylethynyl)phenyl]-2-(2-methoxypyrimidin-5-yl)-9a-methyl-4,9-dihydro-3H-pyrazino[1,2-c]pyrimidine-1,6,8-trione]	90	55
Cc1ccnc(N2CCN3C(=O)N(c4c(F)cc(C#Cc5ccccc5)cc4F)C(=O)CC3(C)C2=O)c1 (racemic) [Example 12, (9aRS)-7-(2,6-difluoro-4-(phenylethynyl)phenyl)-9a-methyl-2-(4-methylpyridin-2-yl)tetrahydro-1H-pyrazino[1,2-c]pyrimidine-1,6,8(2H,7H)-trione]	126	131
